# Several values for one entry are separate records, joined by “and”; a condition that tells them apart may be missing. Equal values may be shown once.
# Assays:
# Recombinant LOXL-1 = target: T1, Recombinant LOXL-1 (Homo sapiens, UniProt Q08397); assay: Lysyl oxidase enzymatic activity, fluorescence-based assay, IC50; assay type: biochemical
# T1 sequence (Q08397 96-574): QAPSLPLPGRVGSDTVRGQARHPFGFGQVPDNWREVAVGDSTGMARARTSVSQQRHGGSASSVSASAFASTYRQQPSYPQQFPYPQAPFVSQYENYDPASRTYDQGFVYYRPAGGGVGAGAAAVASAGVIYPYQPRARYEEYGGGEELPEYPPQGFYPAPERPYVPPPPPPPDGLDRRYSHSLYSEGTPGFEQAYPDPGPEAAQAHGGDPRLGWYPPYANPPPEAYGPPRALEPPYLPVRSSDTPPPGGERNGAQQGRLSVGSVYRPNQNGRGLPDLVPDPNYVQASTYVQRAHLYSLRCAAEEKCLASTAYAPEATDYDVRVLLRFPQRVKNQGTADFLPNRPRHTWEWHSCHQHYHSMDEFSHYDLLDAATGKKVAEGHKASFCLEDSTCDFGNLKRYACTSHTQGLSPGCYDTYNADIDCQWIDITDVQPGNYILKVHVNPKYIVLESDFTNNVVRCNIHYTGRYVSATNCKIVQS
# Excerpt: Data are presented as mean ± s.d. […] Data presented as mean ± s.d. […] Source data TEXT PRINTED IN THE PICTURE: (b) PXS-5505: Recombinant DAO IC50 (nM): >30,000; Recombinant SSAO/VAP1 IC50 (nM): >30,000; Recombinant MAO-A IC50 (nM): >30,000; Recombinant MAO-B IC50 (nM): >30,000 | (f) PXS-5505: Fibroblast LOX IC50 (nM): 4,930; Recombinant LOXL-1 IC50 (nM): 1,590; Recombinant LOXL-2 IC50 (nM): 570; Recombinant LOXL-3 IC50 (nM): 1,800; Recombinant LOXL-4 IC50 (nM): 190
# In characterizing PXS-5505, the half-maximum inhibitory concentration (IC50) values for each of the lysyl oxidase family members were determined by measuring enzymatic activity using a fluorescence-based assay. […]
# KPC CCs = assay: Cancer cell invasion into CAF-remodeled 3D organotypic matrices; assay type: cell-based, mouse; conditions: for number of cancer cells invaded per FOV: single replicates
# Description: Fig. 3 PXS-5505 inhibition of CAF remodeling in vitro. a, Quantitative PCR with reverse transcription (qRT–PCR) showing in vitro comparison of KPC CAF relative expression of lysyl oxidase family members compared to KPC CCs from the same model (n = 3 biologically independent samples). Comparisons were determined by 2^–∆∆Ct approach. b, Representative images of 3D organotypic matrix contraction assay at days 2, 6 and 12 in the absence (gray) or presence (pink) of PXS-5505 (30 µM). Scale bars, 5 mm. Comparison of measured area of matrices between control and PXS-5505 treatment groups over time (n = 3 technical samples examined over three biologically independent samples). Data are mean ± s.d. c, Concentration of immature divalent DHLNL and mature trivalent Pyr collagen crosslinks determined by LC–MS from control and PXS-5505-treated organotypic matrices at day 12 (n = 3 technical samples examined over two biologically independent samples). Data are mean ± s.d. […] Data are presented as mean ± s.d. […] Comparison of number of CCs invaded per field of view (FOV) as determined by H&E and PanCK staining (nine images taken from three technical samples from each of three biologically independent contracted matrices), normalized to control. Data are mean ± s.d. Scale bars, 100 μm. […] Source data
# Following remodeling, 4 × 10^4 KPC CCs were seeded on top of the remodeled matrix in DMEM supplemented with 10% FBS and 1% penicillin–streptomycin and allowed to grow to confluence for 4 days, after which matrices were transferred to an air–liquid interface and CCs allowed to invade into the organotypic matrices for 12 days (Extended Data Fig. 4f). PXS-5505 (30 μM) or PXS-5120 (100 nM) was added to medium at 48-h intervals for the duration. At the end point, matrices were fixed in 10% formalin and processed for histological analysis by H&E and panCK staining. The invasive index was measured in three representative areas per matrix and the number of invaded cells per mm^2 was calculated. No statistical methods were used to predetermine sample sizes but our sample sizes are similar to those reported in previous publications[36],[39].
# Extended Data Fig. 4 PXS-5505 inhibits collagen cross-linking by PDAC CAFs in vitro resulting in decreased cancer cell invasion. a. Schematic of organotypic matrix remodeling assay whereby CAFs are embedded into a 3D collagen matrix and growth media supplemented with or without PXS-5505 to inhibit lysyl oxidase family activity b. Chemical structures of lysyl oxidase family catalyzed hydroxyallysine or allysine residues and the subsequent divalent and trivalent bonds that are formed that can be quantified by mass spectrometry. c. Representative images of 3D organotypic matrix contraction by human pancreatic cancer CAFs at days 2, 6 and 12 in the absence (gray) and presence (pink) of PXS-5505 (30 µM). Scale bars = 5 mm. […] Data presented as mean values +/− SD. d. […] Data presented as mean values +/− SD. Relative fold expression of LOXL family members compared to LOX were determined by 2^–∆∆Ct approach. f. […] Comparison of measured area of matrices between control, PXS-5120 and PXS-5505 treatment groups (n = 3) over time. i. […] Representative images of invasion of KPC cancer cells into a contracted organotypic matrix as determined by H&E staining. […]
compound,measurement,setting,value
"Cl.Cl.NC/C=C(\F)CS(=O)(=O)c1cccc2cccnc12.O [PXS-5505, (Z)-3-fluoro-4-(quinolin-8-ylsulfonyl)but-2-en-1-amine dihydrochloride monohydrate]",IC50,Recombinant LOXL-1,1.59 µM
same,"LOXL1 activity, IC50 determination curve","Recombinant LOXL-1; log(Concentration) -4.52288, replicates, 30 µM",-0.3767 and 0.3431 and 4.322
same,"LOXL1 activity, IC50 determination curve","Recombinant LOXL-1; log(Concentration) -5, replicates, 10 µM",5.837
same,"LOXL1 activity, IC50 determination curve","Recombinant LOXL-1; log(Concentration) -5.47712, replicates, 3.333 µM",31.2503 and 31.9336
same,"LOXL1 activity, IC50 determination curve","Recombinant LOXL-1; log(Concentration) -5.95424, replicates, 1.111 µM",60.6166 and 67.4565
same,"LOXL1 activity, IC50 determination curve","Recombinant LOXL-1; log(Concentration) -6.43136, replicates, 0.3704 µM",85.3221 and 90.5851
same,"LOXL1 activity, IC50 determination curve","Recombinant LOXL-1; log(Concentration) -6.90849, replicates, 0.1235 µM",93.09 and 98.6783
same,"LOXL1 activity, IC50 determination curve","Recombinant LOXL-1; log(Concentration) -7.38561, replicates, 0.04115 µM",99.6453 and 102.919
same,"LOXL1 activity, IC50 determination curve","Recombinant LOXL-1; log(Concentration) -7.86273, replicates, 0.01372 µM",100.176 and 100.944
same,"LOXL1 activity, IC50 determination curve","Recombinant LOXL-1; log(Concentration) -8.33985, replicates, 0.004572 µM",101.83 and 104.276
same,"LOXL1 activity, IC50 determination curve","Recombinant LOXL-1; log(Concentration) -8.81697, replicates, 0.001524 µM",107.666 and 104.748
same,"LOXL1 activity, IC50 determination curve","Recombinant LOXL-1; log(Concentration) -9.29409, replicates, 0.000508 µM",100.744 and 106.953
same,activity at 10 µM,"Recombinant LOXL-1; read-out: LOXL1 activity, IC50 determination curve, log(Concentration) -5, replicates",4.51%
same,activity at 3.333 µM,"Recombinant LOXL-1; read-out: LOXL1 activity, IC50 determination curve, log(Concentration) -5.47712, replicates",20.9%
same,activity at 1.111 µM,"Recombinant LOXL-1; read-out: LOXL1 activity, IC50 determination curve, log(Concentration) -5.95424, replicates",63.8%
same,activity at 0.3704 µM,"Recombinant LOXL-1; read-out: LOXL1 activity, IC50 determination curve, log(Concentration) -6.43136, replicates",85%
same,activity at 0.1235 µM,"Recombinant LOXL-1; read-out: LOXL1 activity, IC50 determination curve, log(Concentration) -6.90849, replicates",94.6%
same,activity at 0.04115 µM,"Recombinant LOXL-1; read-out: LOXL1 activity, IC50 determination curve, log(Concentration) -7.38561, replicates",99.8%
same,activity at 0.01372 µM,"Recombinant LOXL-1; read-out: LOXL1 activity, IC50 determination curve, log(Concentration) -7.86273, replicates",100%
same,activity at 0.004572 µM,"Recombinant LOXL-1; read-out: LOXL1 activity, IC50 determination curve, log(Concentration) -8.33985, replicates",101%
same,activity at 0.001524 µM,"Recombinant LOXL-1; read-out: LOXL1 activity, IC50 determination curve, log(Concentration) -8.81697, replicates",101%
same,activity at 0.000508 µM,"Recombinant LOXL-1; read-out: LOXL1 activity, IC50 determination curve, log(Concentration) -9.29409, replicates",102%
same,depth of invasion,KPC CCs; PXS-5505 30 µM,no significant difference in depth of invasion
same,invasion into the organotypic matrices by CCs,KPC CCs; PXS-5505 30 µM,decrease in invasion
same,number of cancer cells invaded per FOV,KPC CCs; determined by H&E,0.4375 and 0.5681 and 0.5386 and 0.8338 and 0.9078 and 0.6013 and 0.6222 and 0.3197 and 1.014
same,number of cancer cells invaded per FOV,KPC CCs; determined by PanCK,0.6309 and 0.4054 and 0.3571 and 0.6771 and 0.6115 and 1.118 and 0.7087 and 0.8827 and 0.7763

# From article PMC10518255, “A first-in-class pan-lysyl oxidase inhibitor impairs stromal remodeling and enhances gemcitabine response and survival in pancreatic cancer” (Nature Cancer, 2023)
